Measurements from patent publication US20140173780A1, “SOYBEAN TRAN[…] EFFICIENT AND HIGH-[…] PRODUCTION” (DOW AGROSCIENCES LLC, priority 2012, published 2014).

Test system: un-transformed soybean explants
Experiment: Glyphosate dose response study on un-transformed soybean explants in tissue culture media
Format: in vivo, soybean (Glycine max)
Conditions: for Number of Explants at Various Stages of Selection: SE-1 / Number of Explants at Various Stages of Selection: SE-2 / Number of Explants at Various Stages of Selection: SI-2 / Number of Explants at Various Stages of Selection: End of SE-2: 49 explants at CC; for Number of Explants at Various Stages of Selection: End of SE-2: six weeks on selection
Procedure: Initially, a dose response study was completed. To test the effect of glyphosate on the explants, glyphosate was added to media used from the shoot initiation stage and onwards. Glyphosate was tested from the range of 0.025-0.2 mM. Incorporation of glyphosate in tissue culture media within this concentration range has been reported in soybean (Clemente et al., 2000; Hinchee et al., 1996; Martinell et al., 2006; Martinell et al., 1999; Martinell et al., 2002), tobacco (Singer et al., 1985), cotton (Zhao et al., 2006) and wheat (Hu et al., 2003). Five concentrations of glyphosate were tested for culturing of un-transformed soybean explants. The concentrations incorporated into the SI-2 media were 0.025 mM, 0.05 mM, 0.075 mM, 0.1 mM and 0.2 mM. The un-transformed soybean explants were maintained on the same rate of glyphosate selection for all the successive stages of subculture from SI-2 media to the completion of the tissue culturing protocol. The numbers of healthy explants were counted at each subculture stage. Dead explants were discarded and healthy explants were subcultured further onto appropriate media.
Growth of the explants was also retarded on glyphosate containing media. Next the cotyledons were removed and the explants were subcultured from SI-2 to SE media. At the end of another two weeks of selection on SE media, significant differences in the growth of the explants were observed when the explants were exposed to different levels of glyphosate. The retarded growth of the explants was proportionate to the increasing dose of glyphosate. Similarly the number of dead explants was also proportional to the increasing dose of glyphosate. The number of dead explants increased as the dose of glyphosate was increased. […] Subsequently, three different concentrations of glyphosate (e.g., 0.025 mM, 0.05 mM and 0.1 mM) were incorporated into the selection schemes for Agrobacterium-mediated transformation of the soybean split-seed explants comprising a portion of an embryonic axis.

[1] = 0.025 mM glyphosate in media from SI-2 onwards
[2] = 0.05 mM glyphosate in media from SI-2 onwards
[3] = 0.075 mM glyphosate in media from SI-2 onwards
[4] = 0.1 mM glyphosate in media from SI-2 onwards
[5] = 0.2 mM glyphosate in media from SI-2 onwards

O=C(O)CNCP(=O)(O)O [Glyphosate, glyphosate]
Number of Explants at Various Stages of Selection: SE-1 [1]: 41 | Number of Explants at Various Stages of Selection: SE-2 [1]: 38 | Number of Explants at Various Stages of Selection: SI-2 [1]: 43 | Number of Explants at Various Stages of Selection: End of SE-2 [1]: none of the soybean explants were able to survive | Number of Explants at Various Stages of Selection: SE-1 [2]: 45 | Number of Explants at Various Stages of Selection: SE-2 [2]: 38 | Number of Explants at Various Stages of Selection: SI-2 [2]: 45 | Number of Explants at Various Stages of Selection: End of SE-2 [2]: 0 | Number of Explants at Various Stages of Selection: SE-1 [3]: 45 | Number of Explants at Various Stages of Selection: SE-2 [3]: 21 | Number of Explants at Various Stages of Selection: SI-2 [3]: 47 | Number of Explants at Various Stages of Selection: End of SE-2 [3]: 0 | Number of Explants at Various Stages of Selection: SE-1 [4]: 41 | Number of Explants at Various Stages of Selection: SE-2 [4]: 13 | Number of Explants at Various Stages of Selection: SI-2 [4]: 44 | Number of Explants at Various Stages of Selection: End of SE-2 [4]: 0 | Number of Explants at Various Stages of Selection: SE-1 [5]: 31 | Number of Explants at Various Stages of Selection: SE-2 [5]: 1 | Number of Explants at Various Stages of Selection: SI-2 [5]: 42 | Number of Explants at Various Stages of Selection: SE-2 (0.2 mM glyphosate in media from SI-2 onwards, listed as glyphosate): only one explants survived | Number of Explants at Various Stages of Selection: End of SE-2 [5]: 0 | yellowing of the cotyledons (end of culturing on SI-2 media (about 2 weeks), 0.025-0.2 mM glyphosate, extent proportional to dose): explants showed yellowing of the cotyledons | growth of the explants (glyphosate containing media, 0.025-0.2 mM, proportionate to dose): retarded
